The NIST ThermoML archive (doi:10.1016/j.jct.2019.02.011)

Experiment: xn = mol fraction of the nth substance listed
Details: Liquid, Vibrating tube method

COC(=O)OC [dimethyl carbonate] + CCCO
mass density [kg/m3]
Details | 100 kPa | 5000 kPa | 10000 kPa | 15000 kPa | 20000 kPa | 25000 kPa | 30000 kPa | 35000 kPa | 40000 kPa
293.15 K, x1 = 0.0273 | – | – | – | 821.94 | 825.23 | 828.56 | 831.57 | 834.42 | 837.07
293.15 K, x1 = 0.0506 | – | – | – | 828.58 | 831.87 | 835.25 | 838.27 | 841.13 | 843.83
293.15 K, x1 = 0.0755 | – | – | – | 835.71 | 839.06 | 842.44 | 845.52 | 848.42 | 851.14
293.15 K, x1 = 0.1007 | – | – | – | 842.9 | 846.25 | 849.69 | 852.76 | 855.68 | 858.39
293.15 K, x1 = 0.1495 | – | – | – | 856.75 | 860.16 | 863.6 | 866.73 | 869.7 | 872.48
293.15 K, x1 = 0.2003 | – | – | – | 871.06 | 874.53 | 878.01 | 881.2 | 884.18 | 887.03
293.15 K, x1 = 0.2529 | – | – | 882.09 | 885.77 | 889.3 | 892.84 | 896.04 | 899.12 | 902.04
293.15 K, x1 = 0.2993 | – | – | 894.95 | 898.64 | 902.18 | 905.76 | 909.02 | 912.16 | 915.09
293.15 K, x1 = 0.3497 | – | – | 908.71 | 912.45 | 916.05 | 919.68 | 923 | 926.2 | 929.19
293.15 K, x1 = 0.401 | – | – | 922.59 | 926.38 | 930.03 | 933.72 | 937.09 | 940.3 | 943.36
293.15 K, x1 = 0.4509 | – | – | 936.03 | 939.87 | 943.59 | 947.28 | 950.71 | 953.97 | 957.05
293.15 K, x1 = 0.5002 | – | – | 949.24 | 953.09 | 956.87 | 960.6 | 964.04 | 967.36 | 970.51
293.15 K, x1 = 0.5498 | – | – | 962.47 | 966.32 | 970.1 | 973.84 | 977.34 | 980.72 | 983.88
293.15 K, x1 = 0.5996 | – | – | 975.61 | 979.51 | 983.36 | 987.15 | 990.65 | 994.04 | 997.26
293.15 K, x1 = 0.6499 | – | – | 988.81 | 992.77 | 996.62 | 1000.46 | 1004.03 | 1007.42 | 1010.66
293.15 K, x1 = 0.7006 | – | – | 1002.08 | 1006.04 | 1009.95 | 1013.8 | 1017.37 | 1020.81 | 1024.12
293.15 K, x1 = 0.7471 | – | – | 1014.07 | 1018.08 | 1022.06 | 1025.95 | 1029.53 | 1032.98 | 1036.36
293.15 K, x1 = 0.7989 | – | – | 1027.41 | 1031.43 | 1035.41 | 1039.31 | 1042.94 | 1046.46 | 1049.84
293.15 K, x1 = 0.8491 | – | – | 1040.37 | 1044.44 | 1048.43 | 1052.38 | 1056.08 | 1059.59 | 1063.05
293.15 K, x1 = 0.8993 | – | – | 1053.34 | 1057.42 | 1061.47 | 1065.42 | 1069.12 | 1072.65 | 1076.12
293.15 K, x1 = 0.9249 | – | – | 1059.86 | 1063.94 | 1067.99 | 1071.94 | 1075.65 | 1079.23 | 1082.7
293.15 K, x1 = 0.9489 | – | – | 1065.93 | 1070.01 | 1074.07 | 1078.02 | 1081.73 | 1085.31 | 1088.8
293.15 K, x1 = 0.9743 | – | – | 1072.35 | 1076.43 | 1080.5 | 1084.5 | 1088.21 | 1091.8 | 1095.29
293.15 K, x1 = 1 | – | – | 1078.93 | 1083.01 | 1087.08 | 1091.03 | 1094.75 | 1098.34 | 1101.84
298.15 K, x1 = 0.0273 | 807.06 | 810.99 | 814.7 | 818.11 | 821.44 | – | – | – | –
298.15 K, x1 = 0.0506 | 813.55 | 817.52 | 821.28 | 824.74 | 828.12 | – | – | – | –
298.15 K, x1 = 0.0755 | 820.52 | 824.54 | 828.31 | 831.81 | 835.25 | – | – | – | –
298.15 K, x1 = 0.1007 | 827.5 | 831.52 | 835.34 | 838.84 | 842.29 | – | – | – | –
298.15 K, x1 = 0.1495 | 841.12 | 845.19 | 849.06 | 852.61 | 856.13 | – | – | – | –
298.15 K, x1 = 0.2003 | 855.15 | 859.27 | 863.19 | 866.8 | 870.37 | – | – | – | –
298.15 K, x1 = 0.2529 | 869.54 | 873.66 | 877.64 | 881.29 | 884.88 | – | – | – | –
298.15 K, x1 = 0.2993 | 882.18 | 886.34 | 890.38 | 894.08 | 897.73 | – | – | – | –
298.15 K, x1 = 0.3497 | 895.71 | 899.93 | 904.02 | 907.77 | 911.48 | – | – | – | –
298.15 K, x1 = 0.401 | 909.36 | 913.63 | 917.77 | 921.57 | 925.35 | – | – | – | –
298.15 K, x1 = 0.4509 | 922.58 | 926.89 | 931.09 | 934.95 | 938.74 | – | – | – | –
298.15 K, x1 = 0.5002 | 935.57 | 939.93 | 944.14 | 948.04 | 951.89 | – | – | – | –
298.15 K, x1 = 0.5498 | 948.57 | 952.93 | 957.19 | 961.1 | – | – | – | – | –
298.15 K, x1 = 0.5996 | 961.54 | 965.95 | 970.21 | 974.17 | – | – | – | – | –
298.15 K, x1 = 0.6499 | 974.52 | 978.92 | 983.24 | 987.25 | – | – | – | – | –
298.15 K, x1 = 0.7006 | 987.56 | 992.01 | 996.39 | 1000.44 | – | – | – | – | –
298.15 K, x1 = 0.7471 | 999.38 | 1003.88 | 1008.26 | 1012.37 | – | – | – | – | –
298.15 K, x1 = 0.7989 | 1012.54 | 1017.09 | 1021.53 | 1025.64 | – | – | – | – | –
298.15 K, x1 = 0.8491 | 1025.27 | 1029.83 | 1034.32 | 1038.48 | – | – | – | – | –
298.15 K, x1 = 0.8993 | 1038.07 | 1042.62 | 1047.12 | 1051.28 | – | – | – | – | –
298.15 K, x1 = 0.9249 | 1044.52 | 1049.07 | 1053.57 | 1057.78 | – | – | – | – | –
298.15 K, x1 = 0.9489 | 1050.53 | 1055.08 | 1059.58 | 1063.79 | – | – | – | – | –
298.15 K, x1 = 0.9743 | 1056.89 | 1061.44 | 1065.95 | 1070.16 | – | – | – | – | –
298.15 K, x1 = 1 | 1063.45 | 1068 | 1072.51 | 1076.72 | – | – | – | – | –
